From BindingDB's records for patent USRE47493 (Boehringer Ingelheim International, 2019)

Target: T1, Neutrophil elastase (Homo sapiens, UniProt P08246)
T1 sequence (P08246 whole entry): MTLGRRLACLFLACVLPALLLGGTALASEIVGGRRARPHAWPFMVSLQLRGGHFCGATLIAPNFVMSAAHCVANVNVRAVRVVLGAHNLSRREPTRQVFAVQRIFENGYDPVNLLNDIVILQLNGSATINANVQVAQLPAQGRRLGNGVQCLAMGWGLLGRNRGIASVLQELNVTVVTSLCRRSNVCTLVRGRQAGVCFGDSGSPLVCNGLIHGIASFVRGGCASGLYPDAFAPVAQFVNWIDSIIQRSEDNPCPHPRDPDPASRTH
Test: Enzyme Inhibition Assay
Protocol: All other materials were of the highest grade commercially available.The following buffers were used: Compound buffer: 100 mM Tris, 500 mM NaCl, adjusted to pH 7.5; Assay buffer: 100 mM Tris, 500 mM NaCl, adjusted to pH 7.5, containing 0.01% BSA.Assay conditions: Test compounds were prediluted in DMSO and subsequently in compound buffer (5% DMSO final). […] After inactivation of the enzyme, fluorescence intensities were measured at 380 nm excitation and 460 nm emission wavelengths.

Row | IC50 [nM] | SMILES
1 | < 1 | N#Cc1ccc(C2C3=C(CCCC3=O)N(c3cccc(C(F)(F)F)c3)C(=O)N2C(=O)NC2CCC[C@@H]2O)cc1 (some centres not stated) [USRE47493, Example 70.12]
2 | 1.1 | N#Cc1ccc(C2C3=C(CCCC3=O)N(c3cccc(C(F)(F)F)c3)C(=O)N2C(=O)NC2CCCC[C@@H]2O)cc1 (some centres not stated) [USRE47493, Example 70.17]
